Patent publication US8258151B2, “3-aminoimidazo [1,2-A] pyridine derivatives as SGLT inhibitors” (Merck Patent GmbH, priority 2006, dated 2012)

Experiments:
SGLT1 = target: T1, SGLT1 (Homo sapiens, UniProt P13866); experiment: SGLT1 activity measurement: 14C-AMG uptake in BHK cells transfected with SGLT1; format: cell-based; conditions: AMG 50 μM, 37° C., 90 min
T1 construct: expressed in transfected cells
T1 sequence (P13866 1-664): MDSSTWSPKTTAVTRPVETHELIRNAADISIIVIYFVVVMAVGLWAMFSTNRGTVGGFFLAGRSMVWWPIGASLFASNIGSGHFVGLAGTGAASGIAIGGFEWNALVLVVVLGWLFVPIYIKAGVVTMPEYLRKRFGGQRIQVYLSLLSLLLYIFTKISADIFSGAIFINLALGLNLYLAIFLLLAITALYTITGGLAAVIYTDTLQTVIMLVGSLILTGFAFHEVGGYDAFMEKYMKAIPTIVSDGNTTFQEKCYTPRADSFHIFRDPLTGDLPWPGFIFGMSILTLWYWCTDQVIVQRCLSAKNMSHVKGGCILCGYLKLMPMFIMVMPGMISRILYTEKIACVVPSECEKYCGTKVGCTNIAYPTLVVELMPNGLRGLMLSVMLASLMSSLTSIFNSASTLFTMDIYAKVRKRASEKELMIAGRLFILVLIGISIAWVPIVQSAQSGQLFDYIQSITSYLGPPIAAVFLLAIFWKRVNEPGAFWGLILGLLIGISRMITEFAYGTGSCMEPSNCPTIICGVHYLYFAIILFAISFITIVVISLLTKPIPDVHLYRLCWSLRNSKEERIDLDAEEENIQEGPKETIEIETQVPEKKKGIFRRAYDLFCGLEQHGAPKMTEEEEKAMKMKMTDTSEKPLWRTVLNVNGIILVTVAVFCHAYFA
Summary of the method: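 BHK21 cells stably transfected with human SLC5A1 were incubated with 14C-AMG (added solution at 50 μM) ± compound for 90 min at 37 °C. The buffer was 140 mM NaCl, HEPES/Tris, pH 7.4. Lysed-cell radioactivity was counted by scintillation, and non-specific uptake was measured in sodium-free sucrose buffer.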

SGLT2 = target: T2, SGLT2 (Homo sapiens, UniProt P31639); experiment: SGLT2 activity measurement: 14C-AMG uptake in BHK cells transfected with SGLT2; format: cell-based; conditions: AMG 2 mM, 37° C., 90 min
T2 construct: expressed in transfected cells
T2 sequence (P31639 1-672): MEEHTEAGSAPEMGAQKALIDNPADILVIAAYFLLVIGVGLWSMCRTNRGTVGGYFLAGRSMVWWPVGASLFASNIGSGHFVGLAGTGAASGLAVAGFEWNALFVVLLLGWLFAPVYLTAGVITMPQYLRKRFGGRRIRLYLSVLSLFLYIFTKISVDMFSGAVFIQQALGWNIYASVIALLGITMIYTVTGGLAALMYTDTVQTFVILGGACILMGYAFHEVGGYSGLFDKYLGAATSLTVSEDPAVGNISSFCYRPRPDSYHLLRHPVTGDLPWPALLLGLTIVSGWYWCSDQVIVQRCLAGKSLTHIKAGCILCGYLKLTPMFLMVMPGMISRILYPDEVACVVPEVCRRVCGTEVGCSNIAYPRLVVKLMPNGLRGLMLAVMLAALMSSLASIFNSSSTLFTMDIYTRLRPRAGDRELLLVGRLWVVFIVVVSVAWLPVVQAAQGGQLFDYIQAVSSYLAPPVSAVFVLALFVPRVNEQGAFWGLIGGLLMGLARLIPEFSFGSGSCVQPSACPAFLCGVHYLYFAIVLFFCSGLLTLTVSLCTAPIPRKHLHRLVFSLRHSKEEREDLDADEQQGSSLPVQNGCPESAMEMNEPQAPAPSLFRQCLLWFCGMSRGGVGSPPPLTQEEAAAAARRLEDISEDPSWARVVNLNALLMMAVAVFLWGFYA
Summary of the method: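 BHK21 cells stably expressing human SGLT2 took up 14C-AMG (added as 2 mM solution) ± compound for 90 min at 37 °C in Na+-containing HEPES/Tris buffer, pH 7.4. Uptake was measured by scintillation counting after lysis. Non-specific uptake was defined in sodium-free sucrose buffer.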

SMILES | IC50 (SGLT1) [nM] | IC50 (SGLT2) [nM]
CCc1cccc(OCC(N)=O)c1-c1nc2ccc(F)cn2c1Nc1c(Cl)cccc1Cl [Compound A241, 2-[2-(Aminocarbonylmethoxy)-6-ethylphenyl]-3-(2,6-dichlorophenylamino)-6-fluoroimidazo-[1,2-a]pyridine] | 10 to 1000 | 10 to 1000
COc1cc(C)c(-c2nc3ccc(F)cn3c2Nc2c(F)cccc2C(F)(F)F)c(OCC(N)=O)c1 [Compound A242, 2-[2-(Aminocarbonylmethoxy)-4-methoxy-6-methylphenyl]-3-(2-fluoro-6-trifluoromethyl-phenylamino)-6-fluoroimidazo[1,2-a]pyridine] | 1000 to 10000 | 10 to 1000
COc1cc(C)c(-c2nc3ccc(F)cn3c2Nc2c(F)cccc2Br)c(OCC(N)=O)c1 [Compound A243, 2-[2-(Aminocarbonylmethoxy)-4-methoxy-6-methylphenyl]-3-(2-fluoro-6-bromophenylamino)-6-fluoroimidazo[1,2-a]pyridine] | 1000 to 10000 | 10 to 1000
COc1cc(C)c(-c2nc3ccc(F)cn3c2Nc2c(F)cc(F)cc2F)c(OCC(N)=O)c1 [Compound A244, 2-[2-(Aminocarbonylmethoxy)-4-methoxy-6-methylphenyl]-3-(2,4,6-trifluorophenylamino)-6-fluoroimidazo[1,2-a]pyridine] | 1000 to 10000 | 10 to 1000
CCc1cc(OC)cc(OCC(N)=O)c1-c1nc2ccc(F)cn2c1Nc1c(C)cc(C(=O)OC)cc1C [Compound A245, 2-[2-(Aminocarbonylmethoxy)-4-methoxy-6-ethylphenyl]-3-(2,6-dimethyl-4-methoxycarbonyl-phenylamino)-6-fluoroimidazo[1,2-a]pyridine] | > 10000 | 1000 to 10000
COC(=O)c1cccc(C)c1Nc1c(-c2c(C)cc(OC)cc2OCC(N)=O)nc2ccc(F)cn12 [Compound A246, 2-[2-(Aminocarbonylmethoxy)-4-methoxy-6-methylphenyl]-3-(2-methyl-6-methoxycarbonyl-phenylamino)-6-fluoroimidazo[1,2-a]pyridine] | > 10000 | 1000 to 10000
COc1cc(C)c(-c2nc3c(F)cc(F)cn3c2Nc2c(C)cc(F)cc2C)c(OCC(N)=O)c1 [Compound A251, 2-[2-(Aminocarbonylmethoxy)-4-methoxy-6-methylphenyl]-3-(2,6-dimethyl-4-fluorophenyl-amino)-6,8-difluoroimidazo[1,2-a]pyridine] | 1000 to 10000 | 10 to 1000
COc1cc(C)c(-c2nc3ccc(F)cn3c2Nc2c(F)cc(Br)cc2F)c(OCC(N)=O)c1 [Compound A252, 2-[2-(Aminocarbonylmethoxy)-4-methoxy-6-methylphenyl]-3-(2,6-difluoro-4-bromophenyl-amino)-6-fluoroimidazo[1,2-a]pyridine] | 1000 to 10000 | 1000 to 10000
COc1cc(C)c(-c2nc3ccc(F)cn3c2Nc2c(C)cc([N+](=O)[O-])cc2C)c(OCC(N)=O)c1 [Compound A254, 2-[2-(Aminocarbonylmethoxy)-4-methoxy-6-methylphenyl]-3-(2,6-dimethyl-4-nitrophenyl-amino)-6-fluoroimidazo[1,2-a]pyridine] | > 10000 | 10 to 1000
COc1cc(C)c(-c2nc3ccc(F)cn3c2Nc2c(C)cccc2Cl)c(OCC(N)=O)c1 [Compound A256, 2-[2-(Aminocarbonylmethoxy)-4-methoxy-6-methylphenyl]-3-(2-chloro-6-methylphenyl-amino)-6-fluoroimidazo[1,2-a]pyridine] | 1000 to 10000 | 10 to 1000
CCc1cc(OC)cc(OCC(N)=O)c1-c1nc2ccc(F)cn2c1Nc1c(C)cccc1Cl [Compound A257, 2-[2-(Aminocarbonylmethoxy)-4-methoxy-6-ethylphenyl]-3-(2-chloro-6-methylphenylamino)-6-fluoroimidazo[1,2-a]pyridine] | 1000 to 10000 | 10 to 1000

Further lines, results first:

IC50 (SGLT1) [nM] | IC50 (SGLT2) [nM] | SMILES
> 10000 | 10 to 1000 | CCc1cc(OC)cc(OCC(N)=O)c1-c1nc2ccc(F)cn2c1Nc1c(C)cccc1C(F)(F)F [Compound A247, 2-[2-(Aminocarbonylmethoxy)-4-methoxy-6-ethylphenyl]-3-(2-methyl-6-trifluoromethylphenyl-amino)-6-fluoroimidazo[1,2-a]pyridine]
> 10000 | 10 to 1000 | COc1cc(C)c(-c2nc3ccc(F)cn3c2Nc2c(F)cccc2Cl)c(OCC(N)=O)c1 [Compound A248, 2-[2-(Aminocarbonylmethoxy)-4-methoxy-6-methylphenyl]-3-(2-fluoro-6-chlorophenylamino)-6-fluoroimidazo[1,2-a]pyridine]
1000 to 10000 | 1000 to 10000 | COc1cc(C)c(-c2nc3ccc(F)cn3c2Nc2c(C)cc(Br)c(C)c2Br)c(OCC(N)=O)c1 [Compound A249, 2-[2-(Aminocarbonylmethoxy)-4-methoxy-6-methylphenyl]-3-(2,5-dimethyl-4,6-dibromophenylamino)-6-fluoroimidazo[1,2-a]-pyridine]
> 10000 | 10 to 1000 | COc1cc(C)c(-c2nc3ccc(F)cn3c2Nc2c(C)cc(C)cc2[N+](=O)[O-])c(OCC(N)=O)c1 [Compound A250, 2-[2-(Aminocarbonylmethoxy)-4-methoxy-6-methylphenyl]-3-(2,4-dimethyl-6-nitrophenyl-amino)-6-fluoroimidazo[1,2-a]pyridine]
1000 to 10000 | 10 to 1000 | CCc1cc(OC)cc(OCC(N)=O)c1-c1nc2c(F)cc(F)cn2c1Nc1c(C)cc(F)cc1C [Compound A255, 2-[2-(Aminocarbonylmethoxy)-4-methoxy-6-ethylphenyl]-3-(2,6-dimethyl-4-fluorophenyl-amino)-6,8-difluoroimidazo[1,2-a]pyridine]
